Data taken from PMC6598759, “In vitro genotoxicity of nitroimidazoles as a tool in the search of new trypanocidal agents” (Memórias do Instituto Oswaldo Cruz, 2019).
Like-named read-outs stand apart in the source and are kept apart here.

How the values were obtained:
[1] = system: whole human blood cells (WHBC); details: cited from earlier work; for percentage decrease in cell viability: 2 h
[2] = system: bloodstream trypomastigotes form Y strain of T. cruzi; details: read-out: IC50/24 h (concentration that produces 50% lysis of the parasites), trypomastigote forms; cited from earlier work
[3] = system: whole human blood cells (WHBC); details: 149-6,400 µM, 2 h, p > 0.1; cited from earlier work
[4] = system: whole human blood cells (WHBC); experiment: In vitro cytokinesis-block micronucleus assay (CBMN) with whole human blood cells; details: for result in the CBMN: overall call; for MN formation compared to solvent-control: concentration range analysed
Method: In vitro cytokinesis-block micronucleus assay (CBMN) with whole human blood cells (WHBC) - Heparinised WHBC samples were obtained by venipuncture from volunteers as described above. […] WHBC cultures exposed to mitomycin C (MMC) (1.0 µg/mL in water) (Bristol, USA) for 2 h or to N-deacetyl-N-methylcolchicine in water (Demecolcine: Sigma-Aldrich) 0.02 µg/mL for 28 h were used as positive control cultures. After the treatment, the WHBC cultures were centrifuged (900 rpm, 10 min) and washed with 5 mL PBS. […] CytB has cytokinesis-block activity leading to the formation of binucleate cells. […] The fixed cell suspension was dropped on a clean glass slide and the slide was air-dried on a heating plate (60 °C). Air-dried slides were stained with 60 µg/mL acridine orange in Sörensen buffer (0.03 M KH2PO4, 0.03 M Na2HPO4) for 3s, then they were embedded in distilled water and covered with a coverslip. MN showing bright green fluorescence were analysed using a fluorescence microscope at 400 X magnification. MN were scored in 2,000 binucleated cells (BNC) for culture and the number of the micronucleate cells (MNC) in 2,000 BNC was determined. Cytotoxicity was measured using the cytokinesis-block proliferation index (CBPI) and the replication index (RI) which were calculated from 500 cells. The CBPI indicates the average number of nuclei per cell, and may be used to calculate cell proliferation. The RI indicates the relative number of cell cycles per cell during the period of exposure to cytoB in treated cultures compared to control cultures and can be used to calculate the % cytostasis. CBPI was calculated according to the formula: CBPI = [(No. mononucleate cells) + (2 x No. binucleate cells) + (3 x No. multinucleate cells)] / N, where N indicates the total number of cells scored. RI (%) was calculated according to the formula:
RI %=((No. binucleate cells) + (2 x No. multinucleate cells)) ÷ (Total number of cells)T/((No. binucleate cells) + (2 x No. multinucleate cells)) ÷ (Total number of cells)C x 100
where T indicates treated cultures and C control cultures
Cytotoxicity was evidenced in the occurrence of reduction in CBPI or RI of cultures treated by test substances when compared to control cultures. The measurement of cytotoxicity was used to select the concentrations of the test substance to be analysed for the presence of MN. […] However, it was adopted in this work as the maximum concentration in CBMN one that induced a proliferation inhibition not exceeding about 50% established by ICH S2 (R1) for lymphocyte cultures.
The chi-square test for trend was performed to analyse if the increase of MNC was concentration-related.[30]

[5] = system: bloodstream trypomastigotes form Y strain of T. cruzi; experiment: In vitro trypanocidal assay; assay type: cell-based; details: Trypanosoma cruzi, read-out: IC50/24 h (concentration that produces 50% lysis of the parasites), trypomastigote forms, 37 °C
Method: In vitro trypanocidal assay - To accomplishment of the experiments were used bloodstream trypomastigotes form Y strain of T. cruzi, obtained at the peak of the parasitemia (7th day after infection) of infected Swiss albino mice.[34] The trypomastigotes underwent a differential centrifugation process for the separation of erythrocytes, leukocytes and concentration of the parasites in the plasma, and the purified parasites were resuspended in RPMI medium and cell concentration was determined by counting in the Neubauer chamber. Stock solution of each compound was prepared in dimethyl sulfoxide (DMSO), and the assays were performed in Dulbecco’s modified Eagle medium in 96-well plates. In the first well was placed twice the highest desired concentration of each compound, in a final volume of 200 μL, in the following wells were added 100 μL of medium supplemented with 10% foetal bovine serum (FBS) and 2% L-glutamine. Subsequently, 100 μL of parasite suspension (10^6 trypomastigotes) were added, resulting in a final concentration of 5 x 10^6 parasites/mL, incubated for 24 h at 37 °C under a 5% CO2 atmosphere and quantified in Neubauer’s chamber by light microscopy. […] At least four independent experiments were performed and the mean and standard deviation were calculated. Benznidazole (1) was used as a reference drug. The experiments were performed in accordance with the guidelines established by the Oswaldo Cruz Foundation Committee of Ethics for the Use of Animals (L 038/2018).

Chagas disease = details: cited from earlier work
[6] = system: whole human blood cells (WHBC); experiment: Cytotoxicity assay (FDA/EtBr) in whole human blood cells; details: for percentage decrease in cell viability: 2 h, 37 °C; for lethality variation range: 2 h at 37 °C, compared to solvent-control
Method: In vitro treatment and cytotoxicity assay in whole human blood cells (WHBC) - Heparinised WHBC was obtained by venipuncture from healthy young non-smoking volunteers with no known recent exposures to genotoxic chemicals or radiation immediately before the assays. […] The cytotoxicity assay aims to establish the degree of cell viability after treatment with nitroimidazoles to define the ranges concentrations to be tested in the in vitro CA. Cell viability was determined at the end of the treatment using the fluorescein diacetate (FDA)/ethidium bromide (EtBr)-assay, in which viable cells are labelled in green, while dead ones display orange-stained nuclei. WHBC (50 μL) was mixed with an equal volume of the freshly prepared staining solution consisting of 30 μg/mL FDA plus 8 μg/mL EtBr in phosphate-buffered saline (PBS). Samples (50 μL) were spread on a microscope slide and covered with a coverslip and observed using a fluorescence microscope. Two hundred cells were analysed for each treatment.[32] The research project involving the use of human blood samples was approved by the Committee on Ethics in Research with Human Beings - CEP Fiocruz/IOC (CAAE: 41684815.3.0000.5248) under the consolidated opinion of CEP No. 1066061.

[7] = system: whole human blood cells (WHBC); experiment: In vitro alkaline comet assay (CA) in whole human blood cells; assay type: cell-based
Method: Methyl methane-sulfonate (MMS) (160 μM) (Sigma-Aldrich) was used as a positive control. […] Slides were prepared, lysed (pH 10; 4-5 °C) and processed as described earlier,[32] using a time of alkali denaturation of 20 min and electrophoresis (0.86 V/cm and 300 mA) of 20 min at a pH > 13. […] The DNA damage was expressed as percentage of cells into four classes and as arbitrary units (AU) according to the formula: AU = (0 […] 3), where n = the number of cells analysed in each class. The total DNA damage score in AU (TAU) for 200 cells can range from 0 TAU (200 undamaged cells) to 600 TAU (all cells maximally damaged).

Salmonella typhimurium = details: cited from earlier work
[8] = 4 h, relative to solvent-control
[9] = 10,000 μM, relative to solvent-control

Row | Structure (SMILES) | CBPI ([4]; 150 µM, 4 h) | NMNC/2000 binucleated cells ([4]; 150 µM, 4 h) | RI (%) ([4]; 150 µM, 4 h) | CBPI ([4]; 640 µM, 4 h) | NMNC/2000 binucleated cells ([4]; 640 µM, 4 h) | RI (%) ([4]; 640 µM, 4 h) | CBPI ([4]; 1,600 µM, 4 h) | NMNC/2000 binucleated cells ([4]; 1,600 µM, 4 h) | RI (%) ([4]; 1,600 µM, 4 h) | CBPI ([4]; 4,000 µM, 4 h) | RI (%) ([4]; 4,000 µM, 4 h) | CBPI ([4]; 10,000 µM, 4 h) | RI (%) ([4]; 10,000 µM, 4 h) | maximum concentration used in MN analysis (inducing in the maximum 50% reduction of CBPI or RI) [4, 8] | result in the CBMN [4] | IC50 [5] | percentage decrease in cell viability ([6]; 149 µM) | percentage decrease in cell viability ([6]; 238 µM) | percentage decrease in cell viability ([6]; 382 µM) | percentage decrease in cell viability ([6]; 610 µM) | other results
1 | Cn1c([N+](=O)[O-])cnc1-c1nnc(N)[nH]1 [Compound 4] | 1.220 | 28 | 106% | 1.230 | 36 | 107% | 1.218 | 44 | 76% | 1.054 | 22% | 1.052 | 23% | 1,600 μM | clastogenic and/or aneugenic |  |  |  |  |  | percentage decrease in cell viability ([1]; 149 µM): 1.0%; percentage decrease in cell viability ([1]; 238 µM): 1.0%; percentage decrease in cell viability ([1]; 382 µM): 1.0%; percentage decrease in cell viability ([1]; 610 µM): 0%; percentage decrease in cell viability ([1]; 1,562 µM): 1.0%; percentage decrease in cell viability ([1]; 2,500 µM): 1.0%; percentage decrease in cell viability ([1]; 4,000 µM): 0%; percentage decrease in cell viability ([1]; 6,400 µM): 0%; lethality variation range ([1]; 149-6,400 µM, 2 h at 37 °C, compared to solvent-control): 1-4%; IC50 [2]: 257 ± 53 µM; DNA strand breaks compared to solvent-control [3]: did not cause DNA strand breaks; concentrations with significant mutagenic effect (increase of MNC) ([4]; 4 h, p < 0.01 for 3, p < 0.05 for 4 and 7): 1,600 μM
2 | O=C(Cn1ccnc1[N+](=O)[O-])NCc1ccccc1 [Benznidazole, benznidazole] |  |  |  |  |  |  |  |  |  |  |  |  |  |  |  | 8.8 ± 1.1 µM |  |  |  |  | serological cure (Chagas disease; adults with late chronic infection): 5-20%; digestive intolerance (Chagas disease; adverse event): 5-15%; general symptoms such as anorexia, asthenia, headache, and sleep disturbances (Chagas disease; adverse event): 40%; skin rash (Chagas disease; adverse event): 29-50%; discontinuation of treatment (Chagas disease; due to adverse events): 9-29%
3 | Cn1cnc([N+](=O)[O-])c1Nc1nnc(C(F)(F)F)[nH]1 [Compound 5] | 1.310 | 20 | 151% | 1.228 | 8 | 111% | 1.192 | 20 | 95% | 1.340 | 167% | 1.152 | 78% |  | negative | > 500 µM | 0% | 0% | 0% | 0% | percentage decrease in cell viability ([6]; 1,562 µM): 0%; percentage decrease in cell viability ([6]; 2,500 µM): 0%; percentage decrease in cell viability ([6]; 4,000 µM): 2.0%; percentage decrease in cell viability ([6]; 6,400 µM): 1.0%; percentage decrease in cell viability ([6]; 10,000 µM): 2.0%; lethality variation range ([6]; 149-10,000 µM): 1-4%; result in the in vitro CA [7]: positive; concentrations at which a significant (p < 0.05) genotoxic effect was observed ([7]; human, 2 h): > 610 µM; NMNC/2000 binucleated cells ([4]; 4,000 µM, 4 h): 24; NMNC/2000 binucleated cells ([4]; 10,000 µM, 4 h): 36; reduction of CBPI [4, 9]: 36%; reduction of RI [4, 9]: 22%; MN formation compared to solvent-control ([4]; 4 h): did not induce a significant increase in MN formation
4 | Cn1cnc([N+](=O)[O-])c1-n1cccn1 [Compound 6] | 1.184 | 32 | 148% | 1.204 | 12 | 132% | 1.134 | 16 | 114% | 1.068 | 56% | 1.036 | 24% | 4,000 μM | negative | > 500 µM | 0% | 4.0% | 0% | 0% | concentration with cytotoxic activity (Salmonella typhimurium; TA98): 50 µg/mL; concentration with mutagenicity in TA100 (Salmonella typhimurium; TA100, absence and presence of S9 mixture, highest tested concentration): 50 µg/mL; concentration range with cytotoxic activity (Salmonella typhimurium; TA100 and TA1535 strains): 1.0 to 50 µg/mL; percentage decrease in cell viability ([6]; 1,562 µM): 0%; percentage decrease in cell viability ([6]; 2,500 µM): 6%; percentage decrease in cell viability ([6]; 4,000 µM): 0%; percentage decrease in cell viability ([6]; 6,400 µM): 0%; lethality variation range ([6]; 149-6,400 µM): 1-4%; result in the in vitro CA [7]: positive; concentration with significant (p < 0.05) DNA damage ([7]; human, 2 h): 6,400 µM; cells with class 1 DNA damage ([7]; human, 2 h, 6400 µM): 10.5%; NMNC/2000 binucleated cells ([4]; 4,000 µM, 4 h): 12; MN formation compared to solvent-control ([4]; 4 h): did not induce a significant increase in MN formation
